Six compounds from patent publication US7148204B2, “Antisense modulation of bcl-x expression” (Isis Pharmaceuticala, Inc., priority 1998, dated 2006) can be followed below.

One series concerns CEM-C7 cells. Kind of series: Viable cell counts of CEM cells (propidium iodide exclusion, flow cytometry). The following applies: CEM cells; for viability by propidium iodide exclusion: 20 μM electroporation. The format is cell-based, human. The protocol:
CEM-C7 cells (Norman et al., 1978), a glucocortocoid sensitive clone of the human T-lymphoblastic cell line CEM, were cultured between 5×10^4 to 10^6 cells/ml in RPMI 1640 medium containing 10% heat-inactivated fetal bovine serum (FBS), streptomycin, penicillin G, 15 mM HEPES, 2 mM sodium pyruvate, at 37° C. in a humid, 5% CO2 incubator. Viable cell counts were performed by propidium iodide staining and flow cytometry.
CEM-C7 cells were electroporated with the indicated concentrations of oligonucleotides at 150 volts, 1,700 microFaraday (μF), and a resistance setting of 5 with a BTX electroporation apparatus (Genetronics, San Diego, Calif.) in 2-mm gap cuvettes containing 5×10^6 cells in 200 μl RPMI plus 20% FBS on ice. Cells were left on ice for 10 minutes, then plated in 5 ml complete media.

The next series has as its system bcl-xl protein. Kind of series: Immunoblot of bcl-xl protein in CEM cells. Format: cell-based, human. The method, then:
Postnuclear detergent lysates were prepared as described by Reed et al. (Cancer Res., 1991, 51, 6529–6538), and the protein concentration was determined using a Bradford method protein assay kit (Bio-Rad, Hercules, Calif.). Protein (20 μg) was loaded in each lane, followed by electrophoresis on a 12% sodium dodecyl sulfate-polyacrylamide gel, followed by immunoblotting (Winston et al., 1993). The primary antibody was a 0.4 μg/ml dilution of the mouse monoclonal anti-human bcl-2 (clone 124, Dako, Carpinteria, Calif.), a 4.0 μg/ml dilution of the rabbit polyclonal anti-human bcl-xs/l (Dako), or a 0.3 μg/ml dilution of rabbit polyclonal anti-human Bax (N-20, Santa Cruz Biotechnology, Santa Cruz, Calif.). For development and STORM fluorescent imaging, the secondary antibody was peroxidase-conjugated sheep anti-mouse or donkey anti-rabbit (Amersham, Little Chalfort, UK). Chemiluminescence imaging and quantification were preformed using the STORM instrument and ImageQuant software (Molecular Dynamics, Sunnyvale, Calif.).
Background: In western blotting, separated proteins are transferred to a membrane and probed.

A further series deals with HUVEC. The series is described as follows: Apoptosis of HUVEC (hypodiploid cells by flow cytometry). The format is cell-based, human. The following applies: for increase in cellular DNA fragmentation over background: agent alone at low dose: staurosporine 2 nM, C6-ceramide 5 μM. The protocol:
Human umbilical vein endothelial cells (HUVEC) were obtained from Clonetics (San Diego Calif.) and cultivated in endothelial growth medium (EGM) supplemented with 10% fetal bovine serum. Cells were used between passages 2 and 5 and were used at approximately 80% confluency. Cells were washed three times with pre-warmed (37° C.) Opti-MEM™. Oligonucleotides were premixed with 10 μg/ml Lipofectin™ in Opto-MEM™ at an oligonucleotide concentration of 50 nM ISIS 16009. Cells were incubated with oligonucleotide for 4 hours at 37° C. after which the medium was removed and replaced with standard growth medium. Treatment with C6-ceramide (Calbiochem, San Diego Calif.), staurosporine (Calbiochem), or z-VAD.fmk (Calbiochem), if any, was done 24 hours after oligonucleotide treatment. […] Apoptotic cells with fragmented DNA were identified by flow cytometry analysis of hypodiploid cells.

For another series, the system named is bcl-xs/bcl-xl mRNA ratio. Kind of series: RNase protection assay, bcl-xs/bcl-xl mRNA ratio in A549 cells. The conditions noted are these: A549 cells, RPA; for bcl-xs/bcl-xl (%): no oligo 17.56; for bcl-xs/bcl-xl* (change from the control ratio 17.56): no oligo = 1. Format: cell-based, human. The text has this: (§1) The ribonuclease (RNase) protection assay is a sensitive and specific method for quantitating expression levels (Zinn, et al., Cell, 1983, 34:865–79). The method is based on the hybridization of a target RNA to an in vitro transcribed ^32P-labeled anti-sense RNA probe from a DNA template. RNase treatment follows, resulting in degradation of single-stranded RNA and excess probe. The probe and target RNA are resolved by denaturing polyacrylamide gel electrophoresis with the “protected” probe visualized using autoradiography or beta imaging equipment. Template sets can be purchased (PharMingen Inc., San Diego Calif.) which contain a series of biologically relevant templates, each of distinct length and each representing a sequence in a distinct mRNA species. Each template set is capable of detecting up to 11 unique gene messages in a single reaction mix in addition to one or more housekeeping genes, L32 and GAPDH, which serve as internal controls. These template sets allow for multiple determinations to be made from a single sample. Multi-probe RPA can be performed on total RNA preparations derived by standard methods, without further purification of poly-A+ RNA.
(§2) Oligonucleotides were evaluated for their respective effects on bcl-xs and bcl-xl mRNA levels along with total bcl-x mRNA levels, using the RIBOQUANT™ RNase protection kit (Pharmingen, San Diego Calif.). All assays were performed according to manufacturer's protocols. Briefly, multi-probe DNA template sets were used to generate antisense RNA transcripts radiolabeled with […]. The template set used for apoptosis genes was the human hAPO-2 set. These radiolabeled probes were hybridized overnight with typically 10 μg of total cellular RNA. The reaction mixture was then digested with single-strand RNases to generate the protected fragments which were electrophoresed through a 5% acrylamide/urea gel. Protected bands were visualized and quantitated using a PhosphorImager (Molecular Dynamics, Sunnyvale Calif.).
(§3) Human bcl-x has two forms, a long form known as bcl-xl and a short form known as bcl-xs. […] The protein of bcl-xl is similar in size and structure to bcl-2, and could inhibit cell death upon growth factor withdrawal. The protein of bcl-xs is 63 amino acids shorter than bcl-xl. It could inhibit the bcl-2 function, thus promoting programmed cell death (apoptosis). Oligonucleotides were evaluated for their respective effects on bcl-xs and bcl-xl mRNA levels along with total bcl-x mRNA levels, using the RIBOQUANT™ RNase protection kit (Pharmingen, San Diego Calif.). All assays were performed according to manufacturer's protocols.
(§4) These oligonucleotides were tested for their inhibitory effects on bcl-xl and bcl-xs mRNA levels in A549 cells, as detected by RPA analysis. Oligonucleotide concentration was 200 nM.

The next series concerns human bcl-x mRNA. Kind of series: Northern blot analysis of bcl-x mRNA levels in A549 cells. The conditions noted are these: 200 nM chimeric oligonucleotide. Format: cell-based. The protocol: Eighteen hours after antisense treatment, cell monolayers were washed twice with cold PBS and lysed in 1 mL RNAZOL™ (TEL-TEST “B” Inc., Friendswood, Tex.). Total RNA was prepared following manufacturer's recommended protocols. Twenty micrograms of total RNA was fractionated by electrophoresis through 1.2% agarose gels containing 1.1% formaldehyde using a MOPS buffer system (AMRESCO, Inc. Solon, Ohio). RNA was transferred from the gel to HYBOND™-N+ nylon membranes (Amersham Pharmacia Biotech, Piscataway, N.J.) by overnight capillary transfer using a Northern/Southern Transfer buffer system (TEL-TEST “B” Inc., Friendswood, Tex.). RNA transfer was confirmed by UV visualization. Membranes were fixed by UV cross-linking using a STRATALINKER™ UV Crosslinker 2400 (Stratagene, Inc, La Jolla, Calif.).
Membranes were probed using QUICKHYB™ hybridization solution (Stratagene, La Jolla, Calif.) using manufacturer's recommendations for stringent conditions with an 822-base pair bcl-x specific probe prepared by PCR from bases 33–855 of human bcl-xl sequence (Boise et al., 1993, Cell 74:597–608; GenBank accession no. L20121). To normalize for variations in loading and transfer efficiency membranes were stripped and probed for glyceraldehyde-3-phosphate dehydrogenase (GAPDH) RNA (Clontech, Palo Alto, Calif.). Hybridized membranes were visualized and quantitated using a PHOSPHORIMAGER™ and IMAGEQUANT™ Software V3.3 (Molecular Dynamics, Sunnyvale, Calif.). Data was normalized to GAPDH levels in untreated controls.
Oligonucleotides were tested by Northern blot analysis as described in Example 14. Oligonucleotides were tested in A549 cells at a concentration of 400 nM. The results are Table 2:
Oligonucleotides were tested by Northern blot analysis as described in Example 14. Chimeric oligonucleotides were in A549 cells at a concentration of 200 nM. Where present, “N.D.” indicates “not determined”.

The subject of the next series is total bcl-x mRNA. The series is described as follows: RNase protection assay, total bcl-x mRNA in A549 cells. Format: cell-based, human. Set-up: % CONTROL total bcl-x: concentration or dose not given beside the values. The following applies: RPA.
Excerpt: as §1, §2, §3

In a further series the test system is bcl-xs mRNA. The series is described as follows: RNase protection assay, bcl-xs mRNA in A549 cells. More on the design: concentration or dose not given beside the values. The following applies: RPA. The format is cell-based, human.
Excerpt: as §1, §2, §3

Another series concerns bcl-xl mRNA. The series is described as follows: RNase protection assay, bcl-xl mRNA in A549 cells. Format: cell-based, human. The following applies: RPA.
Excerpt: as §1, §2, §3, §4

In the oligonucleotide strings, read from the 5' end, every base follows the letter of its sugar. An asterisk marks phosphorothioate; unmarked linkages are phosphodiester. Other units and linkages are bracketed, terminal groups are in braces. A string of capitals states the bases alone. e = 2'-O-(2-methoxyethyl) (MOE); [5mC] = 5-methylcytosine; d = 2'-deoxy (DNA)

With “5′-TCACATTGGCGCTTAGCCGT-3′ (chemistry not given here) [ISIS 16971, reference compound]”, the “viability by propidium iodide exclusion” value in the series on CEM-C7 cells (48 hours) is listed as 70%; with CEM-C7 cells (72 hours), 82%. Also, in the series with CEM-C7 cells (20 hours after electroporation), the “viable cell count at the highest concentration” value is on record as “started to decrease”. Also, the “level of bcl-xl protein” value in the series on bcl-xl protein was “no effect”.
In the case of `CCCCCCCCCCCCC/C=C/[C@@H](O)[C@H](CO)NC(=O)CCCCC` [C6-ceramide], the “increase in cellular DNA fragmentation over background” value with HUVEC was “did not cause a significant increase”.
Consider “16012 (antisense e[5mC]*e[5mC]*eA*eG*e[5mC]*dC*dG*dC*dC*dG*dT*dT*dC*dT*dC*e[5mC]*eT*eG*eG*eA) [compound 16012]”, for which, in the series with bcl-xs/bcl-xl mRNA ratio, the “bcl-xs/bcl-xl (%)” value was found to be 13.17% and the “bcl-xs/bcl-xl* (change from the control ratio 17.56)” value is reported as 0.75. Further, in the series with human bcl-x mRNA, the “% CONTROL (bcl-x mRNA levels)” value was determined as 30% and the “% INHIB (bcl-x mRNA levels)” value came to 70%. Further, in the series with total bcl-x mRNA, the “% CONTROL total bcl-x” value is listed as 61%. Also, in the series on bcl-xs mRNA, the “% CONTROL bcl-xs” value stood at 48%. In the series on bcl-xl mRNA, the “% CONTROL bcl-xl” value is recorded as 63%.
For `CN[C@@H]1C[C@H]2O[C@@](C)([C@@H]1OC)n1c3ccccc3c3c4c(c5c6ccccc6n2c5c31)C(=O)NC4` [staurosporine], the “increase in cellular DNA fragmentation over background” value in the series with HUVEC is reported as “did not cause a significant increase”.
Turning to “16013 (antisense eT*eA*eG*eA*eG*dT*dT*dC*dC*dA*dC*dA*dA*dA*dA*eG*eT*eA*eT*e[5mC]) [compound 16013]”, in the series with bcl-xs/bcl-xl mRNA ratio, the “bcl-xs/bcl-xl (%)” value is listed as 12.46% and the “bcl-xs/bcl-xl* (change from the control ratio 17.56)” value was 0.71. In the series on human bcl-x mRNA, the “% CONTROL (bcl-x mRNA levels)” value is on record as 85% and the “% INHIB (bcl-x mRNA levels)” value was found to be 15%. Also, in the series on total bcl-x mRNA, the “% CONTROL total bcl-x” value was determined as 82%. The “% CONTROL bcl-xs” value in the series on bcl-xs mRNA worked out at 60%. Further, the “% CONTROL bcl-xl” value in the series on bcl-xl mRNA was determined as 83%.
Turning to `COC(=O)CC[C@H](NC(=O)[C@H](CC(=O)OC)NC(=O)OCc1ccccc1)C(=O)N[C@H](C(=O)N[C@@H](CC(=O)OC)C(=O)CF)C(C)C` [z-DEVD.fmk], the “apoptosis caused by bcl-x inhibition, or bcl-x plus staurosporine or ceramide” value in the series with HUVEC (caspase inhibitor treatment) is “prevented”.
